Measurements: patent US11566018B2, “Treatment of infectious disease” (The Governors of the University of Alberta, priority 2018, dated 2023)

Assays:
RSV-A2-GFP [1] = assay: Dose response experiments, progeny virus titered on HeLa cells; assay type: cell-based, human RSV strain A2; details: 1HAEo- cells
Experimental: Dose response experiments. 1HAEo-cells were infected as described, progeny virus collected, and tittered on HeLa cells in duplicate as described in SAR 2. During initial infection in 1HAEo-cells infectious media was replaced with media containing compounds at indicated concentrations at 2 hours post infection. Proportion of virus infected cells were quantified via indirect immunofluorescence assay.
To further assess the therapeutic potential of compounds identified in SAR 1 and SAR 2, a therapeutic index (TI) of each compound was identified (e.g., ratio of […]). […] Overall, the TI was increased from 4.1 for compound 5a to 12.3 with compound 5f.

MTT cell viability assay = assay type: cell-based, human; details: human; 1HAEo- cells, dose response; read-out: CC50 (cytotoxic concentration at which cell viability is reduced by half)
Experimental: (§1) MTT cell viability assay. 1HAEo-cells were grown in parallel with infected and compound treated cells in SAR and dose response experiments. 0.3 mg/mL of MTT ((3-(4,5-dimethylthiazol-2-yl)-2,5-diphenyl tetrazolium bromide)) in PBS was added to wells and incubated for 1 hour. Precipitate was dissolved in DMSO and absorbance was measured at 570 nm.

1HAEo- cells = assay: MTT cell viability assay; assay type: cell-based, human; details: compounds at 10 μM, SAR screens
Experimental: as §1

RSV-GFP-A2 = assay: Mutant escape assay (serial passage); assay type: cell-based, human RSV strain A2; details: 14 serial passages over five weeks, 1HAEo- cells
Experimental: Mutant escape assay. 1HAEo-cells were infected with RSV-GFP-A2 at an initial MOI of 0.1 and serial passaged over incubation periods of 48-72 hours. Samples were collected during passaging and stored in liquid nitrogen for tittering via indirect immunofluorescence assay. Ongoing low level viral infection during passaging was confirmed by identification of green fluorescence from GFP produced by the RSV-GFP in infected cells.
An established challenge to development of antiviral pharmaceuticals is the evolution of antiviral resistance. This is pronounced for viruses with RNA genome due to an inherent error-prone process of RNA-dependent RNA polymerase replication of a viral genome. Error prone replication results in a high mutation rate of RNA viruses that leads to development of antiviral resistance. As such, development of resistant mutants to compounds 5a and 5f was undertaken, as the site of mutations could provide further insights into the nature of the viral target.

[2] = target: T1, RSV viral replication complex (Human respiratory syncytial virus A, UniProt P28887); assay: Cell extract-based in vitro inhibition of viral transcription; assay type: biochemical, RSV A2
T1 construct: endogenous in cells; crude lysolecithin cell extract
T1 sequence (P28887 whole entry): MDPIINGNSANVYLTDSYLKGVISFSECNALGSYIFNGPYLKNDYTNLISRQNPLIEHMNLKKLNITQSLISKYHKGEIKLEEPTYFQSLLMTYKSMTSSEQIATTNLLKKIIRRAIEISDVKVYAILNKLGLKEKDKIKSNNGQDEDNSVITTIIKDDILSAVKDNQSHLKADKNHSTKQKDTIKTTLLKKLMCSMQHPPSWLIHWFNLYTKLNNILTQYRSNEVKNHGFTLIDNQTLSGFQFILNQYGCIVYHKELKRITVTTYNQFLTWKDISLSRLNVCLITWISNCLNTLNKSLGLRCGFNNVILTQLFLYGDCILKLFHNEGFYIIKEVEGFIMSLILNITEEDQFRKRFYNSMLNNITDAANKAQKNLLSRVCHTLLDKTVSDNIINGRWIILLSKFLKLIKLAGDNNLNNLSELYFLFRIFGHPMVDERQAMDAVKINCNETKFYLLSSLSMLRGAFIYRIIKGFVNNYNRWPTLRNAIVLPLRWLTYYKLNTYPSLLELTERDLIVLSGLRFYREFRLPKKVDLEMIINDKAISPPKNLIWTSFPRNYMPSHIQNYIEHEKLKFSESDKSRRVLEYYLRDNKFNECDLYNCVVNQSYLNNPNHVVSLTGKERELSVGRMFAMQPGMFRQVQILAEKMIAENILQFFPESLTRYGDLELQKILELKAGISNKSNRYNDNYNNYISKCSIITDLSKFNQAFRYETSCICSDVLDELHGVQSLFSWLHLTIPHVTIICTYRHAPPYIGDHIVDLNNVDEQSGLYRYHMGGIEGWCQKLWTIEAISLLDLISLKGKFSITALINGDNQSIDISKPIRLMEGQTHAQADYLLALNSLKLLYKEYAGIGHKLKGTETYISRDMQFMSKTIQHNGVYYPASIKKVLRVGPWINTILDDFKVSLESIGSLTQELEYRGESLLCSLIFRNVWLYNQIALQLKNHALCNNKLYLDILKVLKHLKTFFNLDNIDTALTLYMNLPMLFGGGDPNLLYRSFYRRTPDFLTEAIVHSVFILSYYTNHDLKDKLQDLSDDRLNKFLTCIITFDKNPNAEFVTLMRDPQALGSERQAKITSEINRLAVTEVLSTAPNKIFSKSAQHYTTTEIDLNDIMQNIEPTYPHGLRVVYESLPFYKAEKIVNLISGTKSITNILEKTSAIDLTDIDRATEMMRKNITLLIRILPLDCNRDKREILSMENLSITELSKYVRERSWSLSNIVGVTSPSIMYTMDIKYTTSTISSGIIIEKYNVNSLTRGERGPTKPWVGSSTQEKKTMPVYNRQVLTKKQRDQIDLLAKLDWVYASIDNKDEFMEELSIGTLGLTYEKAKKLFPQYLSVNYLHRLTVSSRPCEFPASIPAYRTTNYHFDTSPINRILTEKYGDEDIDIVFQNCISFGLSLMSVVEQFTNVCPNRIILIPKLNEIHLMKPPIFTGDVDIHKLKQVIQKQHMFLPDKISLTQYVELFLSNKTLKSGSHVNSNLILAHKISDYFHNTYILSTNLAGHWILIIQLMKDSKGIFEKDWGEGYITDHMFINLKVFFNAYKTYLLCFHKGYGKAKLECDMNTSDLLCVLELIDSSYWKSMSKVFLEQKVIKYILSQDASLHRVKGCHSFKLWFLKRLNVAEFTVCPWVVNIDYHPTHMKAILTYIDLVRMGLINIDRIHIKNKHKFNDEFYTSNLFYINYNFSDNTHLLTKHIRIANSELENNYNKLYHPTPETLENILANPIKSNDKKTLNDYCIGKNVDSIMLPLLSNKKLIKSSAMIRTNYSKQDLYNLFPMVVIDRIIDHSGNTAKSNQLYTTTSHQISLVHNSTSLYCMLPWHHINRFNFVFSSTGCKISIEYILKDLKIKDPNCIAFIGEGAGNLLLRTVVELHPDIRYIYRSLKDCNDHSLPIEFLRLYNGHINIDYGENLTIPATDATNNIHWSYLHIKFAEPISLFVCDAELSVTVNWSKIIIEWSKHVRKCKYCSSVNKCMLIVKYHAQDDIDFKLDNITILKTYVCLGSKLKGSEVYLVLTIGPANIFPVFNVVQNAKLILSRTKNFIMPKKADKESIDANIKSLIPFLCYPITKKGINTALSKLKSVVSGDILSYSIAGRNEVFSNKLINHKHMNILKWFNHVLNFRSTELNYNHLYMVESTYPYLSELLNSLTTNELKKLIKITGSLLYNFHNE
T1 sequence (P03421 whole entry, further chain): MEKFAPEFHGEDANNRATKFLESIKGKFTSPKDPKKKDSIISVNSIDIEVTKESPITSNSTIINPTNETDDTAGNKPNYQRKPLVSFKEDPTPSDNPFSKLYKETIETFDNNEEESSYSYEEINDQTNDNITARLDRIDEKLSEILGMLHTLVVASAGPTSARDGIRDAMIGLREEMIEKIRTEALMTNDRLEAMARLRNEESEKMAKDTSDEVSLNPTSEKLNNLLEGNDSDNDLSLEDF

RSV-A2-GFP [3] = assay: Structure activity relationship screens of antiviral activity (SAR 1/SAR 2); progeny virus by indirect immunofluorescence; assay type: cell-based, human RSV strain A2; details: compounds at 10 μM, 1HAEo- cells, progeny virus on HeLa indicator cells
Experimental: (§2) Cells and virus. Hep-2 cells were grown in Opti-MEM media supplemented with 2% fetal bovine serum (FBS), 1HAEo-cells were grown in MEM media supplemented with 10% FBS, and Hela cells grown in DMEM supplemented with 10% FBS. Infections were conducted using human RSV strain A2 or RSV-A2-GFP strain described previously [Hallak, L. K.; Spillmann, D.; Collins, P. L.; Peeples, M. E. J. Virol. 2000, 74, 10508-10513]. A549 cells and Vero cells were grown in DMEM supplemented with 10% FBS and used for experiments with ZIKV (Cambodia strain).
Structure activity relationship screens of antiviral activity. 1HAEo-cells were seeded at 80% confluency and incubated overnight. In SAR1 cells were preincubated with compounds for one hour at 20 μM prior to infection, followed by dilution to 10 μM and infection with RSV-A2-GFP at an MOI of 1 for 2 hours. In SAR2 1HAEo-cells were infected with RSV-A2-GFP at an MOI of 0.5 for 2 hours without pre-incubation with compounds. At 2 hours post infection, infectious media was removed from wells to prevent carry over of infecting virus into progeny collections. Fresh media containing compounds at 10 μM was added for remainder of 48 hour incubation. […]
Progeny virus quantification via indirect immunofluorescence. […] Total cells (identified by DAPI staining) and infected cells were counted via the Operetta high content imaging system at 20x objective magnification. […]

ZIKV (Cambodia strain) = assay: Zika Virus antiviral screen (plaque assay); assay type: cell-based; details: 10 μM, progeny virus quantified on Vero cells by plaque assay, n=3
Experimental: as §2
Zika Virus antiviral screen. Vero cells were pre-treated with bis(indole) compounds at 10 μM for 4 hours before infection with ZIKV at an MOI of 1. After 48 hour infection progeny ZIKV was collected, serial diluted over 6 logs, and transferred onto fresh Vero cell monolayers and incubated for 4 days. Vero cell monolayers were then fixed with 10% formaldehyde and stained with crystal violet; viral infection was quantified via plaque assay.
ZIKV constitutes a virus distinct from RSV with a markedly different intracellular replication strategy. Both viruses encode a viral RdRp essential to viral replication; however, the structure and function of RSV RdRp and ZIKV RdRp are quite different. […] RSV polymerase recognizes cis-acting ‘gene start’ and ‘gene end’ elements of the viral genome to produce subgenomic mRNAs enabling translation of viral proteins. […]

SMILES | viral replication at concentrations tolerated by the host cell (RSV-A2-GFP [1]) | CC50 (MTT cell viability assay) | cytotoxicity (cell viability) (1HAEo- cells) | development of resistant virus (RSV-GFP-A2) | viral transcription from the RSV replication complex [2] | antiviral activity (inhibition of RSV infection) (RSV-A2-GFP [3]) | inhibition of ZIKV infection (ZIKV (Cambodia strain))
COC(=O)C1(c2cn(C)c3ccccc23)Nc2cc(Cl)ccc2C1=O (stereo not shown) [Compound 2p] | viral replication was not diminished at compound concentrations tolerated by the host cell | 22.8 µM | demonstrated cytotoxicity in SAR 1 | – | – | – | –
COC(=O)C1(c2c(-c3ccccc3)[nH]c3ccccc23)Nc2cc(Cl)ccc2C1=O (stereo not shown) [Compound 5a] | consistently inhibited viral replication at concentrations tolerated by the host cell | 42.5 µM | no cytotoxicity | did not result in the development of viruses resistant to either compound | Decreasing viral transcription from the RSV replication complex was observed in a dose dependent manner | comparable to that of the known antiviral guanosine-analogue drug ribavirin | Significant inhibition
COC(=O)C1(c2c(-c3ccc(OC)cc3)[nH]c3ccccc23)Nc2cc(Cl)ccc2C1=O (stereo not shown) [Compound 5b] | – | 59.2 µM | – | – | – | – | –
COC(=O)C1(c2c(-c3ccc(OC)cc3)[nH]c3ccccc23)Nc2cc(Br)ccc2C1=O (stereo not shown) [Compound 5f] | – | 93.5 µM | – | did not result in the development of viruses resistant to either compound | – | – | –
